# Patent publication US20240391942A1 (priority 2021, published 2024)
# Legend:
# Test in all cases: cells
# Type in all cases: cell-based
# U-937 = details: Homo sapiens, U-937, 72 h
# NCI-H1299 = details: Homo sapiens, NCI-H1299, 72 h
# HCC827 = details: Homo sapiens, HCC827, 72 h
# A-375 = details: Homo sapiens, A-375, 72 h
# SK-OV-3 = details: Homo sapiens, SK-OV-3, 72 h
# SK-HEP-1 = details: Homo sapiens, SK-HEP1, 72 h
# A549 = details: Homo sapiens, A549, 72 h
# A-431 = details: Homo sapiens, A-431, 72 h
compound,measurement,setting,value
CN[C@@H]1C[C@H]2O[C@@](C)([C@@H]1OC)n1c3ccccc3c3c4c(c5c6ccccc6n2c5c31)C(=O)NC4 [Staurosporine],IC50,U-937,13.9 nM
same,IC50,NCI-H1299,9.2 nM
same,IC50,HCC827,16.1 nM
same,IC50,A-375,18 nM
same,IC50,SK-OV-3,28 nM
same,IC50,SK-HEP-1,16.9 nM
same,IC50,A549,13.1 nM
same,IC50,A-431,21.1 nM
